Patent US20080188483A1, “Compounds and Compositions as Protein Kinase Inhibitors” (IRM LLC, priority 2006, published 2008)

What was measured:
[1] = target: T1, M351T Bcr-abl (Ba/F3 cells) (Homo sapiens, UniProt P00519, M351T); assay: Proliferation of Ba/F3 cells expressing mutant Bcr-abl M351T; type: cell-based
T1 construct: expressed in transfected cells; host or cells: Ba/F3; the other entry of the earlier key: BCR (P11274, Breakpoint cluster region protein)
Protocol: (§1) 2D-p210 cells are plated into 96 well TC plates at a density of 15,000 cells per well. 50 μL of two fold serial dilutions of the test compound (Cmax is 40 μM) are added to each well (STI571 is included as a positive control). After incubating the cells for 48 hours at 37° C., 5% CO2, 15 μL of MTT (Promega) is added to each well and the cells are incubated for an additional 5 hours. The optical density at 570 nm is quantified spectrophotometrically and IC50 values, the concentration of compound required for 50% inhibition, determined from a dose response curve.
(§2) Compounds of the invention are tested for their antiproliferative effect on Ba/F3 cells expressing either wild type or the mutant forms of BCR-Abl (G250E, E255V, T315I, F317L, M351T) that confers resistance or diminished sensitivity to STI571. The antiproliferative effect of these compounds on the mutant-BCR-Abl expressing cells and on the non transformed cells were tested at 10, 3.3, 1.1 and 0.37 μM as described above (in media lacking IL3). The IC50 values of the compounds lacking toxicity on the untransformed cells were determined from the dose response curves obtained as describe above.

p70S6K = target: T2, p70S6K (Homo sapiens, UniProt P23443); assay: Upstate KinaseProfiler radio-enzymatic filter binding assay; type: biochemical; details: at a concentration of 10 μM; read-out: percentage inhibition of p70S6K
T2 construct: purchased Upstate
Protocol: (§3) Compounds of the invention are assessed for their ability to inhibit individual members of a panel of kinases (a partial, non-limiting list of kinases includes: Abl, BMX, BTK, CHK2, c-RAF, CSK, c-SRC, Fes, FGFR3, Flt3, IKKα, IKKβ, JNK2α2, Lck, Met, MKK4, MKK6, MST2, NEK2, p70S6K, PDGFRβ, PKA, PKBα, PKD2, Rsk1, SAPK2α, SAPK2β, SAPK3, SGK, Tie2 and/or TrkB. The compounds are tested in duplicates at a final concentration of 10 μM following this generic protocol. Note that the kinase buffer composition and the substrates vary for the different kinases included in the “Upstate KinaseProfiler™” panel. Kinase buffer (2.5 μL, 10×—containing MnCl2 when required), active kinase (0.001-0.01 Units; 2.5 μL), specific or Poly(Glu4-Tyr) peptide (5-500 μM or 0.01 mg/ml) in kinase buffer and kinase buffer (50 μM; 5 μL) are mixed in an eppendorf on ice. A Mg/ATP mix (10 μL; 67.5 (or 33.75) mM MgCl2, 450 (or 225) μM ATP and 1 μCi/μl [γ-^32P]-ATP (3000 Ci/mmol)) is added and the reaction is incubated at about 30° C. for about 10 minutes. The reaction mixture is spotted (20 μL) onto a 2 cm×2 cm P81 (phosphocellulose, for positively charged peptide substrates) or Whatman No. 1 (for Poly (Glu4-Tyr) peptide substrate) paper square. The assay squares are washed 4 times, for 5 minutes each, with 0.75% phosphoric acid and washed once with acetone for 5 minutes. The assay squares are transferred to a scintillation vial, 5 ml scintillation cocktail are added and ^32P incorporation (cpm) to the peptide substrate is quantified with a Beckman scintillation counter. Percentage inhibition is calculated for each reaction.

BTK = target: T3, BTK (Homo sapiens, UniProt Q06187); assay: as above; type: biochemical; details: at a concentration of 10 μM; read-out: percentage inhibition of BTK
T3 construct: purchased Upstate
Protocol: as §3

CSK = target: T4, CSK (Homo sapiens, UniProt P41240); assay: as above; type: biochemical; details: at a concentration of 10 μM; read-out: percentage inhibition of CSK
T4 construct: purchased Upstate
Protocol: as §3

c-SRC = target: T5, c-SRC (Homo sapiens, UniProt P12931); assay: as above; type: biochemical; details: at a concentration of 10 μM; read-out: percentage inhibition of c-SRC
T5 construct: purchased Upstate
Protocol: as §3

c-RAF = target: T6, c-RAF (Homo sapiens, UniProt P04049); assay: as above; type: biochemical; details: at a concentration of 10 μM; read-out: percentage inhibition of c-RAF
T6 construct: purchased Upstate
Protocol: as §3

BMX = target: T7, BMX (Homo sapiens, UniProt P51813); assay: as above; type: biochemical; details: at a concentration of 10 μM; read-out: percentage inhibition of BMX
T7 construct: purchased Upstate
Protocol: as §3

TrkB = target: T8, TrkB (Homo sapiens, UniProt Q16620); assay: as above; type: biochemical; details: at a concentration of 10 μM; read-out: percentage inhibition of TrkB
T8 construct: purchased Upstate
Protocol: as §3

Tie2 = target: T9, Tie2 (Homo sapiens, UniProt Q02763); assay: as above; type: biochemical; details: at a concentration of 10 μM; read-out: percentage inhibition of Tie2
T9 construct: purchased Upstate
Protocol: as §3

SAPK2α = target: T10, SAPK2α (Homo sapiens, UniProt Q16539); assay: as above; type: biochemical; details: at a concentration of 10 μM; read-out: percentage inhibition of SAPK2α
T10 construct: purchased Upstate
Protocol: as §3

PDGFRβ = target: T11, PDGFRβ (Homo sapiens, UniProt P09619); assay: as above; type: biochemical; details: at a concentration of 10 μM; read-out: percentage inhibition of PDGFRβ
T11 construct: purchased Upstate
Protocol: as §3

[2] = target: T12, T315I Bcr-abl (Ba/F3 cells) (Homo sapiens, UniProt P00519, T315I); assay: Proliferation of Ba/F3 cells expressing mutant Bcr-abl T315I; type: cell-based
T12 construct: expressed in transfected cells; host or cells: Ba/F3; the other entry of the earlier key: BCR (P11274, Breakpoint cluster region protein)
Protocol: as §1, §2

T5 sequence (P12931 whole entry): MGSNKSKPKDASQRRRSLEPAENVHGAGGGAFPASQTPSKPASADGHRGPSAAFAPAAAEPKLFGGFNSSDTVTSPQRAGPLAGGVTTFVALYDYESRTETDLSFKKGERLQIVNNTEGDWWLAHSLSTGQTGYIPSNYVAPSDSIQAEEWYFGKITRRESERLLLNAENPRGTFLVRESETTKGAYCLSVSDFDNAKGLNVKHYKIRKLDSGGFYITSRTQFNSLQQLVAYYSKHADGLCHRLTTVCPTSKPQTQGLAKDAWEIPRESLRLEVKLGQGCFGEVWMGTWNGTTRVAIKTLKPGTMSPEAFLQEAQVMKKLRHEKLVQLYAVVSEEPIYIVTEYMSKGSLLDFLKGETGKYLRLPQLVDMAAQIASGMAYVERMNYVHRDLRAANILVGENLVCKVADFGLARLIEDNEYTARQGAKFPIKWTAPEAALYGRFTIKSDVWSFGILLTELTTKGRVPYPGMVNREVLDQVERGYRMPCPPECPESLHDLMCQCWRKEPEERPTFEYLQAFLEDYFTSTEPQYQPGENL
T6 sequence (P04049 whole entry): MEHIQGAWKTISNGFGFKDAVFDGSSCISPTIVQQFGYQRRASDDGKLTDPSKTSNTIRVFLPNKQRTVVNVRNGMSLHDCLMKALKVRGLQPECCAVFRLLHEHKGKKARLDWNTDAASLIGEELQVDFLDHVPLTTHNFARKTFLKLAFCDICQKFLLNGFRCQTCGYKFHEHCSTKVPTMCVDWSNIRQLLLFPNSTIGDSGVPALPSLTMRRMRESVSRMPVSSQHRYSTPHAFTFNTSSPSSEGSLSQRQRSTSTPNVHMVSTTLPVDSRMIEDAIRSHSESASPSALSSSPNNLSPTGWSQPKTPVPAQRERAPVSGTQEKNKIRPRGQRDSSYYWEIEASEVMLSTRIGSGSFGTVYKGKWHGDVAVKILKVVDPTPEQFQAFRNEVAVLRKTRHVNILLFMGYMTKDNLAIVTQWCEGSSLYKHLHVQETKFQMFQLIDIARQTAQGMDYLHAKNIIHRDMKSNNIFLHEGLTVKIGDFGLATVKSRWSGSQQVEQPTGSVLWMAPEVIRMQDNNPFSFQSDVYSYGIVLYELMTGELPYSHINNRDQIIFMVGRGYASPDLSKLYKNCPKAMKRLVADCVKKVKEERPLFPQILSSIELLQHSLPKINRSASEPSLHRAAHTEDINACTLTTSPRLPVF
T2 sequence (P23443 whole entry): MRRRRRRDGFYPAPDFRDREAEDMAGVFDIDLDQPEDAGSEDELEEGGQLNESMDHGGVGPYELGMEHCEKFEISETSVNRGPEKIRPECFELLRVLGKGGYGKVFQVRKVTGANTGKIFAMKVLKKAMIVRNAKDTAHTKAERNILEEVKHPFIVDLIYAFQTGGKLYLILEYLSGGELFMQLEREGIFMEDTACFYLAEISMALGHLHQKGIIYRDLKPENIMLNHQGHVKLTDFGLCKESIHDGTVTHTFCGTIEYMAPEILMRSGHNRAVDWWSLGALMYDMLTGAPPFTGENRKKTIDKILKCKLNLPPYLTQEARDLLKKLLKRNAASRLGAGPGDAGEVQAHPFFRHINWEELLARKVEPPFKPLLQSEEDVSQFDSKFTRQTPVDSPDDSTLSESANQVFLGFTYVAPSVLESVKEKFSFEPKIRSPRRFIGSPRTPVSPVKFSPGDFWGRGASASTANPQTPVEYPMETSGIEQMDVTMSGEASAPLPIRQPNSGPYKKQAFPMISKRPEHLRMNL
T3 sequence (Q06187 whole entry): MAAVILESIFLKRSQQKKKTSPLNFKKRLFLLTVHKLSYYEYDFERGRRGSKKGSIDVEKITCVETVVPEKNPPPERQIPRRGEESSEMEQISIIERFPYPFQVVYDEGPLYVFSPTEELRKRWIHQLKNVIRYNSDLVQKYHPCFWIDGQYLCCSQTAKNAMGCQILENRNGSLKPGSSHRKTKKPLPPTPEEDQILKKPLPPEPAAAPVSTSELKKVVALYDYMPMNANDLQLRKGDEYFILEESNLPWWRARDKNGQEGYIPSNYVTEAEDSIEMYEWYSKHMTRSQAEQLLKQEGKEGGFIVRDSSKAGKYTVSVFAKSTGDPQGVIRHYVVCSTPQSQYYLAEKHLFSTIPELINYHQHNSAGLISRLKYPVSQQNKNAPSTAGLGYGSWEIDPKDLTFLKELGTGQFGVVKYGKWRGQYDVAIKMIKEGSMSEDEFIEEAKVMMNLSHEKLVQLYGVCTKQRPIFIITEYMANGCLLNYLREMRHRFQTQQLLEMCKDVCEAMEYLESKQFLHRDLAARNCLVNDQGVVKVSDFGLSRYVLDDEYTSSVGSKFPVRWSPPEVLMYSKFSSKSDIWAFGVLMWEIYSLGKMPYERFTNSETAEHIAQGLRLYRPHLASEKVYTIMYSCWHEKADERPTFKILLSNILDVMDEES
T9 sequence (Q02763 23-1124): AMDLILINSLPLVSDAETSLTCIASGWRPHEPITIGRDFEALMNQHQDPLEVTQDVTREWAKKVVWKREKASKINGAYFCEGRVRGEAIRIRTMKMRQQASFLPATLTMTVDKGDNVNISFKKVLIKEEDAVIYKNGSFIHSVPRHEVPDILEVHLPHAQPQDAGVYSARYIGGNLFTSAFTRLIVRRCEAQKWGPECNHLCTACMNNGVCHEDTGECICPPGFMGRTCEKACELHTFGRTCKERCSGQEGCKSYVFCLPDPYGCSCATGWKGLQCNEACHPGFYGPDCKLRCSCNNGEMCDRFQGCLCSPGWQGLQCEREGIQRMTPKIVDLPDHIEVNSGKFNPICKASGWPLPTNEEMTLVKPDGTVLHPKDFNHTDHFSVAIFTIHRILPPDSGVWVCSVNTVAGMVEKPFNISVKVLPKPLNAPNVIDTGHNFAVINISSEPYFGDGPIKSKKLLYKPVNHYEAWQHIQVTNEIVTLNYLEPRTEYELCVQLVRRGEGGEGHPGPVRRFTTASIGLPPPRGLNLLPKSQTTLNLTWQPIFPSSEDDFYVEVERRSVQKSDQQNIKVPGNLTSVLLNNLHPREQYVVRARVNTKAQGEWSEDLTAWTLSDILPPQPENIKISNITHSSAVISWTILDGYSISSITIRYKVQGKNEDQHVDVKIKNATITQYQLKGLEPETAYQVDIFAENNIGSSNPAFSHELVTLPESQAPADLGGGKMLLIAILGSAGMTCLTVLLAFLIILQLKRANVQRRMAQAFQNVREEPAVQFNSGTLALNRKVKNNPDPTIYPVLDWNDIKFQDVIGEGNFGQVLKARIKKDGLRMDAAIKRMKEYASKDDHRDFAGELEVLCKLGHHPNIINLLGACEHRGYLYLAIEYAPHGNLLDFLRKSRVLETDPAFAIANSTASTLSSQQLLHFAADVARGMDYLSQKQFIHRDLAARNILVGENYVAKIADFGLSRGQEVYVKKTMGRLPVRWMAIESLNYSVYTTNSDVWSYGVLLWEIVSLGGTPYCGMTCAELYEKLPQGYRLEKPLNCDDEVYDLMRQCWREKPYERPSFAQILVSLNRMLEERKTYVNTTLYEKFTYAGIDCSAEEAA
T7 sequence (P51813 whole entry): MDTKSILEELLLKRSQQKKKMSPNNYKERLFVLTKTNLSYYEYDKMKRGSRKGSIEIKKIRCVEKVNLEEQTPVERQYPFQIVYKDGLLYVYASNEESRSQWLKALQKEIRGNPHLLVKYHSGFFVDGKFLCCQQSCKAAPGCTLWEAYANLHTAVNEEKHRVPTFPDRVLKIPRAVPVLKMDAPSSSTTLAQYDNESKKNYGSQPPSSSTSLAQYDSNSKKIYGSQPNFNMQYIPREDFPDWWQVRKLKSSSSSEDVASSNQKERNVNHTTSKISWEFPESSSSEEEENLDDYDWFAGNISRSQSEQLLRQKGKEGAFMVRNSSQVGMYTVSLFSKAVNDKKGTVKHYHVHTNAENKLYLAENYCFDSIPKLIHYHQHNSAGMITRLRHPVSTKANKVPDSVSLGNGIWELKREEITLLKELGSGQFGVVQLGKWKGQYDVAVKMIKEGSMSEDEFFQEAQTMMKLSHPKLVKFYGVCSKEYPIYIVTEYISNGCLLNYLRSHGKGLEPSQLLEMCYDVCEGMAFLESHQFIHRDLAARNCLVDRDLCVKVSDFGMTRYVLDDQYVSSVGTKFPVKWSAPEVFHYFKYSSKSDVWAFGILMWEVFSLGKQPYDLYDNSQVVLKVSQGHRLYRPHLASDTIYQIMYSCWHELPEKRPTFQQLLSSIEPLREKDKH
T8 sequence (Q16620 32-822): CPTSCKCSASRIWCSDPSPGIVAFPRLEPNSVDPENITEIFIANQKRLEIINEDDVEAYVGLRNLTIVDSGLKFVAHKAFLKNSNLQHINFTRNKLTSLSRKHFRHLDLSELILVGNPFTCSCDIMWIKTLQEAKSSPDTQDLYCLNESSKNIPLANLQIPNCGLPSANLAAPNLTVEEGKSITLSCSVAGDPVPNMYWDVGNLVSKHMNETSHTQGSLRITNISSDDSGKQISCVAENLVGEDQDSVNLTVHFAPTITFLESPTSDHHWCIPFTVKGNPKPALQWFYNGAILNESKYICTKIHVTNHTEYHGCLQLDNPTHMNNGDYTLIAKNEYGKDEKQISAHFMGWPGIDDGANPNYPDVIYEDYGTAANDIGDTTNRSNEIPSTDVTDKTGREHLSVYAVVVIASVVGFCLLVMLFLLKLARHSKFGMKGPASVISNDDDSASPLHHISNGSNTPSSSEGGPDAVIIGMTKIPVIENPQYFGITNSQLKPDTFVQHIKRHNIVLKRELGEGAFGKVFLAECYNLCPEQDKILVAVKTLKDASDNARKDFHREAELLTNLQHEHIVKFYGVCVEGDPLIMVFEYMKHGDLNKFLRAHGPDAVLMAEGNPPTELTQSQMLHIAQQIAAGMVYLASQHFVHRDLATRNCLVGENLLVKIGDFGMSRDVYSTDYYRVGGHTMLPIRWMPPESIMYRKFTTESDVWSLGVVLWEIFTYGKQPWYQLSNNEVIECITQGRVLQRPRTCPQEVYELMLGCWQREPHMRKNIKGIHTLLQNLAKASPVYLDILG

Cc1cn(-c2cc(C(=O)Nc3ccc(C)c(Nc4nccn4-c4ncnc5[nH]ccc45)c3)cc(C(F)(F)F)c2)cn1 [Example 2, 3-(4-methyl-imidazol-1-yl)-N-{4-methyl-3-[1-(7H-pyrrolo[2,3-d]pyrimidin-4-yl)-1H-imidazol-2-ylamino]-phenyl}-5-trifluoromethyl-benzamide]
IC50 [1]: < 0.5 nM
inhibition at 10 µM (p70S6K): 86%
inhibition at 10 µM (BTK): 99%
inhibition at 10 µM (CSK): 97%
inhibition at 10 µM (c-SRC): 100%
inhibition at 10 µM (c-RAF): 98%
inhibition at 10 µM (BMX): 99%
inhibition at 10 µM (TrkB): 100%
inhibition at 10 µM (Tie2): 99%
inhibition at 10 µM (SAPK2α): 97%
inhibition at 10 µM (PDGFRβ): 83%
IC50 [2]: 63 nM
